How the values were obtained:
[1] = target: T1, mPTPB (Mycobacterium tuberculosis, UniProt I6WXK4); format: biochemical
T1 sequence (I6WXK4 1-276): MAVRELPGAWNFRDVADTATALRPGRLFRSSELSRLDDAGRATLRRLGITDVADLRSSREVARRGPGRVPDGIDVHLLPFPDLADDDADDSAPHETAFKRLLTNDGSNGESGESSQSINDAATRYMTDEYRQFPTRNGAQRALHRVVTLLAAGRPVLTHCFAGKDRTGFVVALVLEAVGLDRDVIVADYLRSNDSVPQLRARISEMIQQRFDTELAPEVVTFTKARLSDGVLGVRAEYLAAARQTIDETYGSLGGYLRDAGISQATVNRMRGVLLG

[2] = target: T2, TC-PTP (Homo sapiens, UniProt P17706); test: PTP selectivity pNPP assay, TC-PTP; format: biochemical, mammalian
T2 sequence (P17706 1-415): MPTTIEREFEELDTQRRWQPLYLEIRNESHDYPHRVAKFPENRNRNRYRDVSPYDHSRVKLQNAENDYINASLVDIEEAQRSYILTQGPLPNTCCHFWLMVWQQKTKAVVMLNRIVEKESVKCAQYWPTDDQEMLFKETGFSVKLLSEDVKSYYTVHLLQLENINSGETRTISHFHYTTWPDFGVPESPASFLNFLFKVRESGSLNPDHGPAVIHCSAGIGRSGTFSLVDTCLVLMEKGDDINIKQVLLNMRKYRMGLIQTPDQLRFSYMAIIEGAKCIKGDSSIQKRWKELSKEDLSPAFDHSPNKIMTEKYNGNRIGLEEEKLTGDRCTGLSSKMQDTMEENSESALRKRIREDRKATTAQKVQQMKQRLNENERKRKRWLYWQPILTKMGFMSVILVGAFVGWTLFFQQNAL

In the case of `O=C(O)c1cc2c(C#Cc3cc(F)cc(F)c3)c(-c3ccccc3)oc2cc1O` [Compound 4f, 3-((3,5-difluorophenyl)ethynyl)-6-hydroxy-2-phenylbenzofuran-5-carboxylic acid], the “decrease in IC50 for mPTPB compared to 4b” value [1] is reported as 3.3 fold.

In the case of `O=C(O)c1cc2c(C#Cc3cccc(C(F)(F)F)c3)c(-c3ccccc3)oc2cc1O` [Compound 4g, 6-hydroxy-2-phenyl-3-((3-(trifluoromethyl)phenyl)ethynyl)benzofuran-5-carboxylic acid], the “mode of mPTPB inhibition” value [1] is reported as “reversible and noncompetitive”.

`O=C(O)c1cc2c(C#Cc3ccc(F)cc3F)c(-c3ccccc3)oc2cc1O` [Compound 4e, 3-((2,4-difluorophenyl)ethynyl)-6-hydroxy-2-phenylbenzofuran-5-carboxylic acid] was tested, and the IC50 [2] was 9 ± 0.5 µM.

Reference: paper PMC3574584 (Journal of medicinal chemistry, 2013)
